Where two headings read alike, the source gives them in different places. Blank lines part the entries; values can stand above or below the molecule they belong to.
Tests used:
[1] = Pharmacokinetics of oral administration in rats (plasma); format: in vivo; details: rat; for concentration at 1 h / bioavailability / AUC(0-inf) / AUC(0-t) / CL/F / half-life / Cmax / Tmax: plasma; for concentration at 1 h: 1.0 h postadministration; for bioavailability: oral AUC(0-∞)/intravenous AUC(0-∞), read-out: Bioavailability (F); for AUC(0-t): mean n = 6; for CL/F: read-out: CLz/F (clearance) (converted); for half-life: read-out: T1/2z (biological half-life) (converted); for Cmax / Tmax: po; for Ratio of B/A in plasma level (AUC): ratio of soyasapogenol B to soyasapogenol A in plasma
Description: The experiments were performed according to Kamo et al. The rats were divided into three groups (n = 8). All rats were fasted for 14–15 h prior to soyasapogenol A or B administration. All rats were orally administered soyasapogenol A or B via direct stomach intubation.
Blood samples were collected from the tail vein at 0 (pre-dose), 0.25, 0.5, 1, 2, 4, 6, 8, and 24 h after administration. The sample volume was 200 μL. The samples were immediately transferred to a centrifuge tube and treated with a sodium citrate anticoagulant. This fraction was then centrifuged at 10,000 rpm for 10 min, and the upper plasma was collected and placed in a refrigerator at −80 °C for later use.
(§1) The soyasapogenol concentrations in the rat plasma solutions were determined according to the method published in [5]. At first, the plasma samples were thawed to 4 °C and transferred (20 to 100 μL) to an Eppendorf tube. After adding the same volume of 0.2 mol/L sodium acetate buffer to each sample, 3 µL aliquots of glucuronidase (Sigma; extracted from Helix pomatia, containing 95,600 units/mL glucuronidase and 1100 units/mL sulfatase) were added to analyze the glucuronyl- and sulfatide-conjugated forms of the soyasapogenols, and the mixture was incubated at 37 °C for 12 h. The samples were mixed thoroughly, and then they were centrifuged at 10,000 rpm for 15 min. The supernatant was blown with nitrogen gas until it was dry, and residual supernatant was dissolved with 1 mL methanol. Subsequently, after filtration, the samples were analyzed according to the method published in [5].
The bioavailability parameters were calculated by comparing AUCoral postadministration with AUCiv post-soyasapogenol I.V. injection:%Bioavailability = [(AUCoral) × Doseiv/(AUCiv) × Doseoral] × 100
The calculation formula is as follows: F = oral administration AUC(0-∞)/intravenous injection AUC(0-∞).

[2] = Pharmacokinetics of intravenous injection in rats (plasma); format: in vivo; details: rat, intravenous (I.V.); for AUC(0-inf) / Cmax / Tmax / AUC(0-t) / half-life: plasma; for AUC(0-t): mean n = 6; for half-life: iv, read-out: T1/2z (half-life) (converted)
Description: The rats’ dorsal foot veins were cannulated with a standard syringe needle to administer the soyasapogenol. As presented in Table 5, the dosages of soyasapogenol A were 10 mg/kg and 20 mg/kg, and the dosages of soyasapogenol B were 25 mg/kg and 50 mg/kg. Blood samples were collected from the tail vein just prior to soyasapogenol administration (0 h) and 0.03, 0.08, 0.25, 0.5, 1, 2, 4, 6, 8, and 24 h after soyasapogenol loading; blood soyasapogenol levels were measured immediately. The collected blood sample volume was approximately 200 μL, and the samples were subjected to the same sample pretreatment procedure as described below.
as §1

[3] = test system: Caco-2 cell monolayer; set-up: method as in PMID 24698352; details: cited from earlier work

concentration at 1 h ([1]; oral, 10 mg/kg by gavage): 29000 ± 10000 ng/mL | concentration at 1 h ([1]; oral, 20 mg/kg by gavage): 7000 ± 6000 ng/mL | bioavailability ([1]; 10 mg/kg): 73.1% | bioavailability ([1]; 20 mg/kg): 67.3% | AUC(0-inf) ([1]; oral (P.O.), 10 mg/kg): 50.7 µg·h/mL | AUC(0-t) ([1]; oral (P.O.), 10 mg/kg): 35.2 µg·h/mL | CL/F ([1]; oral (P.O.), 10 mg/kg): 6.57 mL/min/kg | half-life ([1]; oral (P.O.), 10 mg/kg): 2.55 h | AUC(0-inf) ([1]; oral (P.O.), 20 mg/kg): 95.5 µg·h/mL | AUC(0-t) ([1]; oral (P.O.), 20 mg/kg): 88.6 µg·h/mL | CL/F ([1]; oral (P.O.), 20 mg/kg): 3.48 mL/min/kg | half-life ([1]; oral (P.O.), 20 mg/kg): 1.97 h | Cmax ([1]; 10 mg/kg, oral (P.O.), 10 mg/kg, read-out: Cmax (peak concentration)): 8590 ng/mL | Tmax ([1]; 10 mg/kg, oral (P.O.), 10 mg/kg, read-out: Tmax (peak time)): 2 h | Cmax ([1]; 10 mg/kg, oral, at 1.0 h postadministration, printed as the 10 mg/kg dose (second mention), read-out: Cmax): 29000 ng/mL | Tmax ([1]; 10 mg/kg, oral, printed as the 10 mg/kg dose (second mention), read-out: time of maximum plasma concentration): 1 h | Cmax ([1]; 20 mg/kg, oral (P.O.), 20 mg/kg, read-out: Cmax (peak concentration)): 29000 ng/mL | Tmax ([1]; 20 mg/kg, oral (P.O.), 20 mg/kg, read-out: Tmax (peak time)): 1 h | AUC(0-inf) ([2]; 10 mg/kg): 69.4 µg·h/mL | Cmax ([2]; 10 mg/kg): 31700 ng/mL | Tmax ([2]; 10 mg/kg): 1.8 min | AUC(0-t) ([2]; 10 mg/kg): 56 µg·h/mL | AUC(0-inf) ([2]; 20 mg/kg): 142 µg·h/mL | Cmax ([2]; 20 mg/kg): 102000 ng/mL | Tmax ([2]; 20 mg/kg): 1.8 min | AUC(0-t) ([2]; 20 mg/kg): 114 µg·h/mL | CLz/F ([2]; 10 mg/kg): 4.8 mL/min/kg | T1/2z (half-life) ([2]; 10 mg/kg): 3.535 h | CLz/F ([2]; 20 mg/kg): 2.35 mL/min/kg | T1/2z (half-life) ([2]; 20 mg/kg): 3.475 h | half-life ([2]; 10 mg/kg, 10 mg/kg): 3.54 h | half-life ([2]; 20 mg/kg, 20 mg/kg): 3.48 h
SMILES: CC1(C)C[C@H]2C3=CC[C@@H]4[C@@]5(C)CC[C@H](O)[C@](C)(CO)[C@@H]5CC[C@@]4(C)[C@]3(C)CC[C@@]2(C)[C@H](O)[C@@H]1O [Soyasapogenol A]

bioavailability ([1]; 25 mg/kg): 60.9% | bioavailability ([1]; 50 mg/kg): 69% | AUC(0-inf) ([1]; oral (P.O.), 25 mg/kg): 111 µg·h/mL | AUC(0-t) ([1]; oral (P.O.), 25 mg/kg): 96 µg·h/mL | CL/F ([1]; oral (P.O.), 25 mg/kg): 3.02 mL/min/kg | half-life ([1]; oral (P.O.), 25 mg/kg): 2.29 h | AUC(0-inf) ([1]; oral (P.O.), 50 mg/kg): 178 µg·h/mL | AUC(0-t) ([1]; oral (P.O.), 50 mg/kg): 157 µg·h/mL | CL/F ([1]; oral (P.O.), 50 mg/kg): 1.87 mL/min/kg | half-life ([1]; oral (P.O.), 50 mg/kg): 2.27 h | time needed to reach peak concentration ([1]; oral administration, dose not stated): 8 h | Ratio of B/A in plasma level (AUC) ([1]; oral, soyasapogenol B 25 mg/kg column): 2.17 | Ratio of B/A in plasma level (AUC) ([1]; oral, soyasapogenol B 50 mg/kg column): 1.87 | Cmax ([1]; 25 mg/kg, oral (P.O.), 25 mg/kg, read-out: Cmax (peak concentration)): 26400 ng/mL | Tmax ([1]; 25 mg/kg, oral (P.O.), 25 mg/kg, read-out: Tmax (peak time)): 2 h | Cmax ([1]; 50 mg/kg, oral (P.O.), 50 mg/kg, read-out: Cmax (peak concentration)): 40300 ng/mL | Tmax ([1]; 50 mg/kg, oral (P.O.), 50 mg/kg, read-out: Tmax (peak time)): 2 h | Tmax ([1]; oral administration, dose not distinguished, read-out: Tmax): 2 h | AUC(0-inf) ([2]; 25 mg/kg): 181 µg·h/mL | Cmax ([2]; 25 mg/kg): 43300 ng/mL | Tmax ([2]; 25 mg/kg): 1.8 min | AUC(0-t) ([2]; 25 mg/kg): 76.2 µg·h/mL | AUC(0-inf) ([2]; 50 mg/kg): 258 µg·h/mL | Cmax ([2]; 50 mg/kg): 66800 ng/mL | Tmax ([2]; 50 mg/kg): 1.8 min | AUC(0-t) ([2]; 50 mg/kg): 154 µg·h/mL | CLz/F ([2]; 25 mg/kg): 4.1 mL/min/kg | T1/2z (half-life) ([2]; 25 mg/kg): 5.138 h | CLz/F ([2]; 50 mg/kg): 1.28 mL/min/kg | T1/2z (half-life) ([2]; 50 mg/kg): 5.528 h | half-life ([2]; 25 mg/kg, 25 mg/kg): 5.14 h | half-life ([2]; 50 mg/kg, 50 mg/kg): 5.53 h
SMILES: CC1(C)C[C@@H](O)[C@]2(C)CC[C@]3(C)C(=CC[C@@H]4[C@@]5(C)CC[C@H](O)[C@](C)(CO)[C@@H]5CC[C@]43C)[C@@H]2C1 [Soyasapogenol B]
amount (%) that permeates into the basolateral side from the apical side [3]: much higher than that of soyasapogenol A

— paper PMC9822287, “The Fate and Intermediary Metabolism of Soyasapogenol in the Rat” (Molecules, 2022)
